Results published in patent US8822697B2, “Paramagnetic polynuclear metal complex having high self-relaxation rate, preparation method thereof, and contrast medium containing same” (Kyungpook National University Industry-Academic Cooperation …, priority 2009, dated 2014).

Tests used:
[1] = Stability, conditional stability and selectivity constants and pM value for gadolinium; type: physicochemical; details: for log K′sel: conditional stability constant (K′Sel); for log K′sel / {log KGdL(PH 7.4)} / [log Ksel(Gd/Ca)] / [log Ksel(Gd/Cu)] / [log Ksel(Gd/Zn)]: 25° C., μ = 0.10M (KCl); for pGd: pM = −log[Mn+] free at pH 7.4, [Mn+] total = 1 μmol/dm3, [L] total = 1.1 μmol/dm3; for [log Ksel(Gd/Ca)]: selectivity constant Gd over Ca; for [log Ksel(Gd/Cu)]: selectivity constant Gd over Cu; for [log Ksel(Gd/Zn)]: selectivity constant Gd over Zn; for [GdL]/[Gd][L]: stability constant, log K (25° C., μ = 0.10M (KCl))
Text: (§1) The stability constant (KML) can be defined by the equation of KML=[ML]/[M][L], wherein M is Gd, Ca, Zn, Cu, and L indicates a ligand.
(§2) The pM value can be defined by the equation of pM=−log [Mn^+] at pH=7.4.
[M]=1.0 μmol/dm^3, [L]=1.1 μmol/dm^3

[2] = Measurement of protonation equilibrium constants (KiH) of the ligands; details: for ΣpKa: 25° C., μ = 0.10M (KCl); for [H2L]/[HL][H] / [H3L]/[H2L][H] / [H5L][H4L][H] / [HL]/[L][H]: protonation equilibrium constant, log K (25° C., μ = 0.10M (KCl))
Text: The protonation equilibrium constant (KiH) can be defined by the equation of KiH═[HiL]/[Hi-1L][H^+], wherein HiL is a protonated ligand (i=1, 2, . . . ).

[3] = Stability constant and pM value for copper; type: physicochemical; details: for {log KCuL(pH 7.4)}: 25° C., μ = 0.10M (KCl); for pCu: pM = −log[Mn+] free at pH 7.4, [Mn+] total = 1 μmol/dm3, [L] total = 1.1 μmol/dm3; for [CuL]/[Cu][L]: stability constant, log K (25° C., μ = 0.10M (KCl))
Text: as §1, §2
[M]=1.0 μmol/dm^3, [L]=1.1 μmol/dm^3

[4] = Stability constant and pM value for zinc; type: physicochemical; details: for {log KZnL(pH 7.4)}: 25° C., μ = 0.10M (KCl); for pZn: pM = −log[Mn+] free at pH 7.4, [Mn+] total = 1 μmol/dm3, [L] total = 1.1 μmol/dm3; for [ZnL]/[Zn][L]: stability constant, log K (25° C., μ = 0.10M (KCl))
Text: as §1, §2
[M]=1.0 μmol/dm^3, [L]=1.1 μmol/dm^3

[5] = Stability constant and pM value for calcium; type: physicochemical; details: for {log KCaL(PH 7.4)}: 25° C., μ = 0.10M (KCl); for pCa: pM = −log[Mn+] free at pH 7.4, [Mn+] total = 1 μmol/dm3, [L] total = 1.1 μmol/dm3; for [CaL]/[Ca][L]: stability constant, log K (25° C., μ = 0.10M (KCl))
Text: as §1, §2
[M]=1.0 μmol/dm^3, [L]=1.1 μmol/dm^3

[6] = Measurement of self-relaxation rate (relaxivity) R1 at 1.5 T (64 MHz); type: physicochemical; details: inverse recovery method
Protocol: Thus, the self-relaxation rate is a factor that determines the efficiency of contrast agent in magnetic resonance imaging. T1 (relaxation time) measurements were carried out using an inverse recovery method with a variable […] (TI) at 1.5 T (64 MHz). The magnetic resonance (MR) images were acquired at 35 different T1 values ranging from 50 to 1750 msec. T1 was obtained from the non-linear least square fit of the signal intensity measured at each TI value. Relaxivity (R1) was then calculated as an inverse of relaxation time per mM.

[7] = 20 MHz, 298 K; cited from earlier work

log K′sel [1] | {log KGdL(PH 7.4)} [1] | pGd [1] | [log Ksel(Gd/Ca)] [1] | [log Ksel(Gd/Cu)] [1] | [log Ksel(Gd/Zn)] [1] | [GdL]/[Gd][L] [1] | [H2L]/[HL][H] [2] | [H3L]/[H2L][H] [2] | [HL]/[L][H] [2] | {log KCuL(pH 7.4)} [3] | pCu [3] | [CuL]/[Cu][L] [3] | {log KZnL(pH 7.4)} [4] | pZn [4] | [ZnL]/[Zn][L] [4] | {log KCaL(PH 7.4)} [5] | pCa [5] | [CaL]/[Ca][L] [5] | R1 [6] [mM⁻¹ s⁻¹] | Structure (SMILES) | also measured
19.59 | 17.03 | 16.03 | 12.73 | 8.66 | 8.66 | 19.59 | 7.59 | 6.52 | 9.52 | 8.42 | 7.42 | 10.98 | 8.37 | 7.37 | 10.93 | 4.30 | 3.30 | 6.86 | – | O=C(O)CN(CCN(CC(=O)O)CC(=O)NC(Cc1cnc[nH]1)C(=O)O)CCN(CC(=O)O)CC(=O)NC(Cc1cnc[nH]1)C(=O)O (stereo not drawn) [Complex L1, DTPA-bis-amide-histidine] | [H5L][H4L][H] [2]: 3.82
– | – | – | – | – | – | – | – | – | – | – | – | – | – | – | – | – | – | – | 5.9 ± 0.03 | O.O=C([O-])CN(CCN(CC(=O)[O-])CC(=O)NC(Cc1cnc[nH]1)C(=O)O)CCN(CC(=O)[O-])CC(=O)NC(Cc1cnc[nH]1)C(=O)O.[Gd+3] (stereo not drawn) [[Gd(L1)H2O]] | –
9.03 | 14.84 | 13.88 | 9.68 | 3.82 | 4.81 | 16.85 | 4.38 | 3.31 | 9.37 | 11.06 | 10.05 | 13.03 | 10.02 | 9.06 | 12.04 | 5.11 | 4.19 | 7.17 | 3.3 ± 0.03 | CNC(=O)CN(CCN(CCN(CC(=O)[O-])CC(=O)NC)CC(=O)[O-])CC(=O)[O-].[Gd+3] [Omniscan, [Gd(DTPA-bismethylamide)(H2O)], reference compound] | ΣpKa [2]: 17.06; self-relaxation rate [7]: 4400 M⁻¹ s⁻¹
– | – | – | – | – | – | – | – | – | – | – | – | – | – | – | – | – | – | – | – | CNC[C@H](O)[C@@H](O)[C@H](O)[C@H](O)CO.CNC[C@H](O)[C@@H](O)[C@H](O)[C@H](O)CO.O=C([O-])CN(CCN(CC(=O)[O-])CC(=O)O)CCN(CC(=O)[O-])CC(=O)O.[Gd+3] [Magnevist, (N-Me-glucamine)2[Gd(DTPA)(H2O)]] | self-relaxation rate [7]: approximately 4.7 mM^−1s^−1

Structure (SMILES) | log K′sel [1] | {log KGdL(PH 7.4)} [1] | pGd [1] | [log Ksel(Gd/Ca)] [1] | [log Ksel(Gd/Cu)] [1] | [log Ksel(Gd/Zn)] [1] | [GdL]/[Gd][L] [1] | [H2L]/[HL][H] [2] | [H3L]/[H2L][H] [2] | [HL]/[L][H] [2] | {log KCuL(pH 7.4)} [3] | pCu [3] | [CuL]/[Cu][L] [3] | {log KZnL(pH 7.4)} [4] | pZn [4] | [ZnL]/[Zn][L] [4] | {log KCaL(PH 7.4)} [5] | pCa [5] | [CaL]/[Ca][L] [5] | R1 [6] [mM⁻¹ s⁻¹] | also measured
O=C(O)CC(NC(=O)CN(CCN(CCN(CC(=O)O)CC(=O)NC(CC(=O)O)C(=O)O)CC(=O)O)CC(=O)O)C(=O)O (stereo not drawn) [Complex L2, DTPA-bis-amide-aspartic acid] | 10.74 | 14.93 | 13.98 | 10.92 | 6.34 | 6.45 | 21.12 | 9.42 | 5.92 | 11.55 | 8.59 | 7.59 | 14.78 | 8.48 | 7.48 | 14.67 | 4.01 | 30.1 | 10.18 | – | ΣpKa [2]: 28.93; [H5L][H4L][H] [2]: 2.04
O.O=C([O-])CN(CCN(CC(=O)[O-])CC(=O)NC(CC(=O)O)C(=O)O)CCN(CC(=O)[O-])CC(=O)NC(CC(=O)O)C(=O)O.[Gd+3] (stereo not drawn) [[Gd(L2)H2O]] | – | – | – | – | – | – | – | – | – | – | – | – | – | – | – | – | – | – | – | 6.9 ± 0.04 | –
